# Where two headings read alike, the source gives them in different places.
# Columns and labels:
# [1] = molecular target: T1, AChE (from electrophorus electricus) (Electrophorus electricus, UniProt O42275); assay: Cholinesterase inhibition assay (Ellman's method), AChE; format: biochemical; conditions: test concentration not given
# T1 construct: purchased Merck or Aldrich
# Method: (§1) AChE from electrophorus electricus and BuChE from equine serum was employed for Ellman’s assay. Each compound (5.0 mg) was dissolved in 1.0 ml of DMSO. […] Briefly, a mixture of phosphate buffer (2.0 ml, 0.1 M, pH = 8.0), 60.0 µl of DTNB solution, and 20.0 µl of AChE/BuChE was prepared, and 30.0 µl of the test compounds in different concentrations were then added to the mixture. Next, a solution of the substrate (acetylthiocholine iodide/butyrylthiocholine iodide, 20.0 µl) was added to the mixture after 10 min incubation at 25°C. All experiments were performed in triplicates, and the temperature of all solutions was controlled to be maintained at 25°C. […] The blank solution was used to validate the non-enzymatic hydrolysis of the substrate during the assessment. The blank solution was prepared by a mixture of 2.0 ml of buffer, 30.0 μl of DMSO, 60.0 μl of DTNB, and 20.0 μl of substrate. The rate of the enzymatic hydrolysis of the substrate was calculated, and % inhibition of the compounds was determined. The half maximal inhibitory concentration (IC50) values were graphically determined from inhibition curves (logarithm of the concentration of the tested compound versus percent of the inhibition).
# [2] = molecular target: T2, BuChE (from equine serum) (Equus caballus, UniProt P81908); assay: biochemical; format: biochemical; conditions: for IC50: mean ± SEM of three experiments, read-out: eq BuChE IC50; for eq BuChE %inhib.: test concentration not given
# T2 construct: BuChE from equine serum was employed for Ellman’s assay; purchased Merck or Aldrich; host or cells: equine serum
# Method: as §1
# [3] = molecular target: T3, 15-LOX (soybean lipoxygenase) (Glycine max, UniProt P08170); assay: Soybean 15-LOX inhibition assay; format: biochemical
# T3 construct: purchased Merck or Aldrich
# T3 sequence (P08170 1-839): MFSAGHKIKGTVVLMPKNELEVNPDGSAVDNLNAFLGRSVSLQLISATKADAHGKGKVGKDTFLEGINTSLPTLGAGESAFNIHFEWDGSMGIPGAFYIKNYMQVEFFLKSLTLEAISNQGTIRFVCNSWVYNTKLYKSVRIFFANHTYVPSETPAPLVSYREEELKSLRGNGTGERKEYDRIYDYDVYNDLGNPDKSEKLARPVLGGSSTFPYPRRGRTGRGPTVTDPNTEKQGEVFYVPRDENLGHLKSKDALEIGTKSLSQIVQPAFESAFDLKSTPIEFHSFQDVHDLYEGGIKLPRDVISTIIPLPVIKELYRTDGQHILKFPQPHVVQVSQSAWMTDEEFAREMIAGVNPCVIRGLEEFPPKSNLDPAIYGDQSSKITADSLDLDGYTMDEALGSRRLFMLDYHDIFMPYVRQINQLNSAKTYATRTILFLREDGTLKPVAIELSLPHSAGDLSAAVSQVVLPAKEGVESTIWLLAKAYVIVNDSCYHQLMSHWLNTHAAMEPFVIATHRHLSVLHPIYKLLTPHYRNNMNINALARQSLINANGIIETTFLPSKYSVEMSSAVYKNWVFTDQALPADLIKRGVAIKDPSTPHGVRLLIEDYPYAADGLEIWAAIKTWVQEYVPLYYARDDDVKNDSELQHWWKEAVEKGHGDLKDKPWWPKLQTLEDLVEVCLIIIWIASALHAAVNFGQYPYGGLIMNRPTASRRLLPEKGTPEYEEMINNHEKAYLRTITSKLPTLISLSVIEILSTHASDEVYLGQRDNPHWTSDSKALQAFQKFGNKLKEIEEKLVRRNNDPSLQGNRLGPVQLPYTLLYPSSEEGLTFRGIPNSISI
# Method: A solution of the target compound was prepared in DMSO, and it was diluted with phosphate buffer (0.1 M, pH = 8.0).
# Aβ1-42 = molecular target: T4, Aβ1-42 (Homo sapiens, UniProt P05067); assay: Self-induced Aβ1-42 aggregation (ThT assay); format: biochemical; conditions: Aβ1-42 10.0 μM, compound 100.0 μM, ThT
# T4 construct: was used to dissolve amyloid β1-40 (Sigma A1075); purchased Sigma A1075
# in vitro = format: cell-based; conditions: MTT, read-out: PC12 viability percent (cytotoxicity)
# Method: The cytotoxic effect of the selected compounds (8l and 8n) on the PC12 cell line was evaluated by using the MTT-based colorimetric assay. First, the PC12 cell line was cultivated in DMEM culture medium, supplemented with fetal bovine serum (10%). […]. Thereafter, the culture medium of each well was replaced by 20 µl MTT solution (5.0 mg/ml) and incubated to form formazan crystals, followed by dissolving them in DMSO (100.0 µl) and recording the related absorbance at 570 nm using a Synergy 2 multimode plate reader (Biotek, Winooski, VT, United States). The viability percent was then calculated according to the control well, where no compound was added to the related well. The mentioned protocol was repeated in triplicates, and the mean ± SEM of the obtained results was reported.
# [4] = soybean lipoxygenase, linoleic acid substrate, read-out: 15-LOX IC50
# T1 sequence (O42275 24-633): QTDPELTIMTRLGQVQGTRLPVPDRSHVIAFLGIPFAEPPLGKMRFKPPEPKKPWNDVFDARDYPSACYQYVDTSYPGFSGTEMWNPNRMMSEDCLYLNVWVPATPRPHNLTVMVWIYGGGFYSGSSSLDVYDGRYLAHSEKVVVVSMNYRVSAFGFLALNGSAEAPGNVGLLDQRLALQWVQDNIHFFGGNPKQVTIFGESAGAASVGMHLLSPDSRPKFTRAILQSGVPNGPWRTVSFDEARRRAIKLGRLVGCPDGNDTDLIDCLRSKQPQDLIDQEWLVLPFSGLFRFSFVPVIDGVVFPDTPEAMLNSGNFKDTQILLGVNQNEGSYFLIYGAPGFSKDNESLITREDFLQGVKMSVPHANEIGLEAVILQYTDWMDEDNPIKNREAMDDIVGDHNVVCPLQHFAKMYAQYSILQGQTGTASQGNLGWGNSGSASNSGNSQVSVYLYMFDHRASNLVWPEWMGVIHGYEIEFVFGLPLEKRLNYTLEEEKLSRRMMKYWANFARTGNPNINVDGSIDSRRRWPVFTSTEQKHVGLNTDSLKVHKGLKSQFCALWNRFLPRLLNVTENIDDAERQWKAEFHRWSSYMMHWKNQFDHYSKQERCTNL
# T2 sequence (P81908 whole entry): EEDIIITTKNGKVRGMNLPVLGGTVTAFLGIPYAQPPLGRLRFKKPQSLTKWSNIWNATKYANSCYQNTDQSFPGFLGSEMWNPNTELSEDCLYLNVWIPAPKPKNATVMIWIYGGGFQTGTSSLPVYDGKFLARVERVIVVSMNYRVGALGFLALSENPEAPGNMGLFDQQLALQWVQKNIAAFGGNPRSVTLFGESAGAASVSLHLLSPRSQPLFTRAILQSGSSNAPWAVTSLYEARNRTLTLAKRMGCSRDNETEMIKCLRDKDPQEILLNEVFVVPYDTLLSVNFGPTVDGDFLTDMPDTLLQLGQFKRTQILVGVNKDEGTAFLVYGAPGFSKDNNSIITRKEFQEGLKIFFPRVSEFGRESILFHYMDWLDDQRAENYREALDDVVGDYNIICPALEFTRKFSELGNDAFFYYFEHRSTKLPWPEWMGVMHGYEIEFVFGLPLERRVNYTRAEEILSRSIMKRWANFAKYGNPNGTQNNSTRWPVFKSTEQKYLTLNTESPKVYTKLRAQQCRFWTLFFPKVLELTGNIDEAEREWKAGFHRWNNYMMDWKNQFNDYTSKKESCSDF
# T4 sequence (P05067 672-711): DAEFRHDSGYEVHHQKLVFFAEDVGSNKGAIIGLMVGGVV
SMILES,ee AChE %inhib. [1],IC50 [2],IC50 [3],eq BuChE %inhib. [2],"IC50 [3, 4]",Inhibition of self-induced Aβ1-42 aggregation (Aβ1-42),"viability at 24 h, 50 µM (in vitro)"
"O=c1oc2ccccc2cc1-c1ccc(OCc2cn(Cc3ccccc3)nn2)cc1 [8a, 3-(4-((1-Benzyl-1H-1,2,3-triazol-4-yl)methoxy)phenyl)-2H-chromen-2-one]",23.6%,27.6 ± 1.3 µM,36.2 ± 1.5 µM,–,–,–,–
"O=c1oc2ccccc2cc1-c1ccc(OCc2cn(Cc3ccccc3F)nn2)cc1 [8b, 3-(4-((1-(2-Fluorobenzyl)-1H-1,2,3-triazol-4-yl)methoxy)phenyl)-2H-chromen-2-one]",11.2%,36.5 ± 1.1 µM,16.5 ± 0.7 µM,–,–,–,–
"O=c1oc2ccccc2cc1-c1ccc(OCc2cn(Cc3cccc(F)c3)nn2)cc1 [8c, 3-(4-((1-(3-Fluorobenzyl)-1H-1,2,3-triazol-4-yl)methoxy)phenyl)-2H-chromen-2-one]",15.3%,–,28.3 ± 1.4 µM,48.9%,–,–,–
"O=c1oc2ccccc2cc1-c1ccc(OCc2cn(Cc3ccc(F)cc3)nn2)cc1 [8d, 3-(4-((1-(4-Fluorobenzyl)-1H-1,2,3-triazol-4-yl)methoxy)phenyl)-2H-chromen-2-one]",32.4%,–,45.2 ± 1.5 µM,12.7%,–,–,–
"O=c1oc2ccccc2cc1-c1ccc(OCc2cn(Cc3ccccc3Cl)nn2)cc1 [8e, 3-(4-((1-(2-Chlorobenzyl)-1H-1,2,3-triazol-4-yl)methoxy)phenyl)-2H-chromen-2-one]",37.3%,–,–,–,> 100 µM,–,–
"O=c1oc2ccccc2cc1-c1ccc(OCc2cn(Cc3ccc(Cl)cc3)nn2)cc1 [8f, 3-(4-((1-(4-Chlorobenzyl)-1H-1,2,3-triazol-4-yl)methoxy)phenyl)-2H-chromen-2-one]",41.4%,–,–,23.6%,> 100 µM,–,–
"O=c1oc2ccccc2cc1-c1ccc(OCc2cn(Cc3ccc(Br)cc3)nn2)cc1 [8g, 3-(4-((1-(4-Bromobenzyl)-1H-1,2,3-triazol-4-yl)methoxy)phenyl)-2H-chromen-2-one]",35.5%,–,–,46.7%,> 100 µM,–,–
"O=c1oc2ccccc2cc1-c1ccc(OCc2cn(Cc3ccccc3[N+](=O)[O-])nn2)cc1 [8h, 3-(4-((1-(2-Nitrobenzyl)-1H-1,2,3-triazol-4-yl)methoxy)phenyl)-2H-chromen-2-one]",20.8%,–,–,–,> 100 µM,–,–
"O=c1oc2ccccc2cc1-c1ccc(OCc2cn(Cc3cccc([N+](=O)[O-])c3)nn2)cc1 [8i, 3-(4-((1-(3-Nitrobenzyl)-1H-1,2,3-triazol-4-yl)methoxy)phenyl)-2H-chromen-2-one]",49.9%,–,–,–,> 100 µM,–,–
"O=c1oc2ccccc2cc1-c1ccc(OCc2cn(Cc3ccc([N+](=O)[O-])cc3)nn2)cc1 [8j, 3-(4-((1-(4-Nitrobenzyl)-1H-1,2,3-triazol-4-yl)methoxy)phenyl)-2H-chromen-2-one]",14.7%,–,–,–,> 100 µM,–,–
"Cc1cccc(Cn2cc(COc3ccc(-c4cc5ccccc5oc4=O)cc3)nn2)c1 [8k, 3-(4-((1-(3-Methylbenzyl)-1H-1,2,3-triazol-4-yl)methoxy)phenyl)-2H-chromen-2-one]",27.4%,–,–,37.1%,53.5 ± 1.5 µM,–,–
"COc1ccc(Cn2cc(COc3ccc(-c4cc5ccccc5oc4=O)cc3)nn2)cc1 [8m, 3-(4-((1-(4-Methoxybenzyl)-1H-1,2,3-triazol-4-yl)methoxy)phenyl)-2H-chromen-2-one]",26.6%,–,41 ± 1.4 µM,40.2%,–,–,–
"COc1cccc2cc(-c3ccc(OCc4cn(Cc5ccccc5F)nn4)cc3)c(=O)oc12 [8o, 3-(4-((1-(2-Fluorobenzyl)-1H-1,2,3-triazol-4-yl)methoxy)phenyl)-8-methoxy-2H-chromen-2-one]",4.0%,–,14.2 ± 0.4 µM,8.0%,–,–,–
"COc1cccc2cc(-c3ccc(OCc4cn(Cc5cccc(F)c5)nn4)cc3)c(=O)oc12 [8p, 3-(4-((1-(3-Fluorobenzyl)-1H-1,2,3-triazol-4-yl)methoxy)phenyl)-8-methoxy-2H-chromen-2-one]",29.8%,–,22.6 ± 0.8 µM,41.7%,–,–,–
"COc1cccc2cc(-c3ccc(OCc4cn(Cc5ccc(F)cc5)nn4)cc3)c(=O)oc12 [8q, 3-(4-((1-(4-Fluorobenzyl)-1H-1,2,3-triazol-4-yl)methoxy)phenyl)-8-methoxy-2H-chromen-2-one]",38.1%,18.9 ± 0.9 µM,35 ± 1.3 µM,–,–,–,–
"COc1cccc2cc(-c3ccc(OCc4cn(Cc5ccc(Cl)cc5)nn4)cc3)c(=O)oc12 [8r, 3-(4-((1-(4-Chlorobenzyl)-1H-1,2,3-triazol-4-yl)methoxy)phenyl)-8-methoxy-2H-chromen-2-one]",41.5%,6.7 ± 0.4 µM,> 100 µM,–,–,–,–
"COc1cccc2cc(-c3ccc(OCc4cn(Cc5ccccc5[N+](=O)[O-])nn4)cc3)c(=O)oc12 [8s, 8-Methoxy-3-(4-((1-(2-nitrobenzyl)-1H-1,2,3-triazol-4-yl)methoxy)phenyl)-2H-chromen-2-one]",27.4%,–,–,42.5%,> 100 µM,–,–
"O=c1oc2ccc(Br)cc2cc1-c1ccc(OCc2cn(Cc3ccc(Br)cc3)nn2)cc1 [8t, 6-Bromo-3-(4-((1-(4-bromobenzyl)-1H-1,2,3-triazol-4-yl)methoxy)phenyl)-2H-chromen-2-one]",15.1%,–,–,–,> 100 µM,–,–
"O=c1oc2ccc(Br)cc2cc1-c1ccc(OCc2cn(Cc3ccccc3F)nn2)cc1 [8u, 6-Bromo-3-(4-((1-(2-fluorobenzyl)-1H-1,2,3-triazol-4-yl)methoxy)phenyl)-2H-chromen-2-one]",45.1%,–,–,46.6%,61.5 ± 1.9 µM,–,–
"O=c1oc2ccc([N+](=O)[O-])cc2cc1-c1ccc(OCc2cn(Cc3ccccc3)nn2)cc1 [8v, 3-(4-((1-Benzyl-1H-1,2,3-triazol-4-yl)methoxy)phenyl)-6-nitro-2H-chromen-2-one]",48.3%,6.3 ± 0.4 µM,> 100 µM,–,–,–,–
"O=c1oc2ccc([N+](=O)[O-])cc2cc1-c1ccc(OCc2cn(Cc3ccccc3F)nn2)cc1 [8w, 3-(4-((1-(2-Fluorobenzyl)-1H-1,2,3-triazol-4-yl)methoxy)phenyl)-6-nitro-2H-chromen-2-one]",16.6%,–,–,30.4%,> 100 µM,–,–
"COc1cc2c(cc1OC)C(=O)C(CC1CCN(Cc3ccccc3)CC1)C2 (stereo not drawn) [Donepezil, donepezil, reference compound]",–,–,–,–,–,42.5 ± 0.3%,–
"Nc1c2c(nc3ccccc13)CCCC2 [Tacrine, tacrine, reference compound]",–,–,–,–,–,–,67.3 ± 1.3%

# Reference: publication PMC8812461, “Synthesis of New 3-Arylcoumarins Bearing N-Benzyl Triazole Moiety: Dual Lipoxygenase and Butyrylcholinesterase Inhibitors With Anti-Amyloid Aggregation and Neuroprotective Properties Against Alzheimer’s Disease” (Frontiers in Chemistry, 2022)
